We go through 3 molecules from patent US9296719B2, “Compositions and methods for the treatment of norovirus infection” (Indiana University Research and Technology Corporation, priority 2011, dated 2016).

“Also recorded” adds a separate entry of the source. Read-outs that look alike come from different tables or passages of the source.

The test system of one test is GII.4 NV polymerase. Put plainly: 5BR reporter assay, GII.4 polymerase. The test is classed as cell-based, Human Norovirus. Conditions: for effect on GII.4 polymerase 5BR assay readout (screen): re-screened at 10 and 20 μM final concentrations, FIG. 6A. As to the method: (§1) The 5BR reporter assay to measure the activity of the Norovirus polymerase and other viral polymerases was performed as per Ranjith-Kumar et al. (32). The assay could also be performed with other viral proteins, such as VPg or VP1. Briefly, plasmids expressing RdRp and VPg were co-transfected along with plasmids to express RIG-I or MDA5, as well as the firefly and Renilla luciferase reporters. HEK293T or Huh 7 cells were transfected using Lipofectamine 2000 (Invitrogen, Carlsbad, Calif.) according to the manufacturer's instructions. 24 h prior to transfection, 0.75×10^5 cells were seeded into each well of Costar 96-well plates in DMEM containing 10% FBS. Cells were then typically transfected at 75% confluency with plasmid amounts detailed in the figure legends and complexed with Lipofectamine 2000 as per the manufacturer's instructions (Invitrogen, USA). Vector plasmid (pUNO-MCS) was used to maintain a constant total plasmid DNA per well. To examine the VPg effect on NV RdRp-RIG-I signaling, 293T cells were co-transfected with plasmids expressing RdRp and VPg. At 36 h after transfection, luciferase activity was measured using Dual-Glo Luciferase Assay System (Promega, Madison, Wis.) in Synergy 2 microplate reader (BioTek, Winooski, Vt.).
Where inhibitors were added to the cells for the 5BR assay, they were added 2 h after transfection of the plasmids.
We have previously developed an easily manipulative, cell-based assay to assess RNA synthesis by viral polymerases. The 5BR assay was validated for the 1b HCV polymerase (NS5B) and has since been established for several other viruses that cannot infect cultured human cells (32 and data not shown). The assay works by having the viral polymerase synthesize RNAs, which then act as agonists to activate RIG-I and/or MDA5. Receptor activation induces Firefly luciferase reporter expression which is driven by the interferon beta promoter (FIG. 2A). A Renilla luciferase is expressed in the same cells to report on the transfection efficiency and possible cytopathic effects. The polymerase from the GII.4 strain of Norwalk virus is the prototype in our assay.
The 5BR assay format has been validated for studies of nonnucleoside and nucleoside inhibitors (NNI, NI, respectively) of the 1b and 2a HCV polymerase and how resistant mutations can prevent inhibition (32). Using this format, we performed a proof-of-concept screen for inhibitor of the GII.4 polymerase. […] The hits were re-screened at 10 and 20 μM final concentrations (FIG. 6A). […] This is consistent with the results of Chang et al., (18) although Ribavirin is known to have pleiotropic effects on cellular as well as viral processes (66).
Background: A reporter such as luciferase makes a cellular process visible.

For test [1], the system named is recombinant GII.4 polymerase (NV RdRp). Put plainly: Differential scanning fluorimetry (DSF) binding to recombinant NV polymerase. More on the design: species or system Human Norovirus. The text has this:
Differential Scanning Fluorimetry (DSF)
This method is used to examine the binding of proteins to drugs (31). The principle for the assay is that the thermal denaturation profile of the protein could be changed when it is complexed to the drug. To perform the assay, thermal melting curves of NV RdRp in the presence of inhibitors were obtained in 96-well plates using Stratagene Mx3005P Q-PCR system (Agilent Tachnologies, USA) and the fluorescent dye SYPRO Orange (Invitrogen, Carlsbad, Calif.). To evaluate the binding affinities of inhibitors, different concentrations of various drugs like VX-222, Filibuvir and Ribavirin were mixed with 20 μM purified NV RdRp and 5× concentration of SYPRO Orange. A heating rate of 1.0° C. per min was used from 25 to 90° C., and fluorescence intensity was read at excitation and emission wavelengths of 470 and 550 nm, respectively. Each sample was tested in triplicate, and the results were duplicated in at least two independent assays.
(In general: Differential scanning fluorimetry follows unfolding on heating by fluorescence.)

The subject of the next test is RIG-I signaling. Description: RIG-I signaling in the absence of the NV polymerase. The test is classed as cell-based, human. As to conditions: absence of the NV polymerase (data not shown). The procedure:
as §1, with “Vt.). […]” for “Vt.).”

For test [2], the target named is GII.4 polymerase-VPg complex. Put plainly: 5BR reporter assay, GII.4 polymerase-VPg complex. Type of test: cell-based, Human Norovirus. As to the method:
as §1
(§2) Where inhibitors were added to the cells for the 5BR assay, they were added 2 h after transfection of the plasmids. […]

For another test, the target named is T1, MNV polymerase (Norovirus, UniProt Q80J95).
T1 construct: NS7, the RNA-dependent RNA polymerase (RdRp), and NS5 (VPg), the protein primer; expressed in transfected cells; host or cells: HEK293T or Huh 7
Put plainly: 5BR reporter assay, MNV polymerase. As to conditions: 5BR assay; read-out: EC50, inhibition of MNV polymerase. Type of test: cell-based, Mouse norovirus. As to the method: as §1, §2

Take `NC(=O)c1ncn([C@@H]2O[C@H](CO)[C@@H](O)[C@H]2O)n1` [Ribavirin]: the “effect on GII.4 polymerase 5BR assay readout (screen)” value with GII.4 NV polymerase is recorded as “modest inhibitory effect”. In test [1] (nucleoside form), the “concentration at which the thermal denaturation profile starts to shift” value was 1 µM.
Take VX-222: the EC50 on GII.4 NV polymerase (5BR assay, polymerase alone (no VPg), read-out: EC50, inhibition of GII4 polymerase) is around 15 µM; on GII.4 NV polymerase (HEK293T cells, 5BR assay, read-out: effective concentration for inhibition), around 0.1 µM; in test [2] (5BR assay, VPg co-expressed, read-out: EC50 with GII.4 polymerase-VPg complex) it was 0.9 µM; in test [2] (library screen, read-out: EC50, inhibitor of human norovirus polymerase-VPg complex), below 1 µM; on MNV polymerase it was around 15 µM. The “inhibition of GII.4 NV polymerase activity in Huh7 cells” value with GII.4 NV polymerase (Huh7 cells, 5BR assay, GII.4 VP1 co-expressed, FIG. 6C) was “concentration-dependent inhibition”. Also, the “effect on RIG-I signaling” value in the test on RIG-I signaling is listed as “did not affect”. The “shift of thermal denaturation profile (apparent Tm) of GII.4 polymerase” value in test [1] (absence of VPg, apparent Tm of polymerase alone ~43.5° C.) is “more than 4.5 °C”.
Take `CCc1cc(CC[C@]2(C3CCCC3)CC(O)=C(Cc3nc4nc(C)cc(C)n4n3)C(=O)O2)cc(CC)n1` [Filibuvir]: the “effect on GII.4 polymerase 5BR assay readout (screen)” value in the test on GII.4 NV polymerase is “no effect; also recorded: did not affect”. The “effect in the DSF assay” value in test [1] (recombinant GII.4 polymerase) was “no effect”.
